# Measurements taken from patent US7399608B2, “Microbial detection and quantification” (Kimberly-Clark Worldwide, Inc., priority 2003, dated 2008).
# How the values were obtained:
# E. coli [1] = test: Cyclodextrin enhancement: coated towel with bacteria; set-up: species or system Escherichia coli; conditions: hydroxypropyl-beta-cyclodextrin coated towel
# Protocol: A SCOTT® paper towel was first coated with hydroxypropyl-beta-cyclodextrin (from Cerestar International, Hammond, Ind., USA) in solution in water (1 gram in 20 ml) by dipping and air-drying at ambient temperature. When dry the coated paper towel was treated with a solution of Reichardt's dye in isopropanol (1 weight percent) and allowed to air-dry. The dried towel was a purple/blue in color. Here the cyclodextrin hinders the crystallization of the dye allowing a more vivid color of the dye to occur on the paper towel. This coated towel was used in a test with gram-negative bacteria (E. coli) and found to turn colorless in less than 5 seconds when an aliquot of 100 microliters of media containing 10,000 CFU/ml was applied to the towel. […] Thus by hindering the dye from crystallizing, the dye is believed to be present on the substrate as single molecules and therefore the sensitivity of the dye to bacteria levels increases. The inventors believe that by careful use of a coating (e.g. cyclodextrin) on the towel a mono-molecular coating of dye will occur on the surface of the substrate and maximum sensitivity will occur.
# [2] = Reichardt's dye indicator with bacterial cell-wall components; conditions: 160 mg in 10 mL acetonitrile
# [3] = UV-Vis absorption spectra in different solvents; format: physicochemical
# Excerpt: Reichardt's dye was used without further purification. […] Solvents used were obtained from Aldrich Chemical and were HPLC grade. A Shimadzu UV-1601 UV-Visible Spectrophotometer (Shimadzu Corporation) was used to measure the longest wavelength peak absorption of the dyes in the range of 400 to 800 nm, dissolved in three different solvents, contained in quartz curvettes. The following table contains the results of the testing with the solvents on the left side and dyes across the top.
# vaccinia = conditions: 50-microliter droplet, 3 minutes
# gram-positive bacteria = test: Dye solution added to bacteria spot on SCOTT towel
# Protocol: A new potential for the Reichardt's dye-based bacterial indicator was realized through testing of liquid dye with bacteria on a substrate rather than substrate-bound dye coming into contact with liquid bacteria (Example 5). This experiment focused on determining how the dye solution responds to known concentrations of bacteria residing on a surface. 100 μl of 10^8 CFU/ml gram-positive bacteria was placed on a SCOTT® towel (FIG. 9A). To this spot was added a drop of the Reichardt's dye dissolved in acetonitrile (160 mg in 10 ml acetonitrile) (9B).
# For comparison, a spot of dye was dried onto the towel and the same amount of bacteria was added. […] Additional drops of the dye were added to the spot of bacteria (9C), and de-colorization continued until the fourth drop, at which point the purple color persisted (9D). Attempts to restore the dye color on the dye-coated SCOTT® towel by adding acetonitrile using a pipette were unsuccessful (9E).
# bacteria solution = test: Lateral flow device; conditions: 5 weight percent dye in iso-propanol striped on nitrocellulose HF75
# Protocol: Millipore nitrocellulose HF75 membrane (from Millipore Corporation of Billerica, Mass., USA) was laminated onto a plastic supporting card (from Millipore Corp.) having a length of approximately 30 centimeters. On both the detection zone and control zone, a solution of 5 weight percent Reichardt's dye in iso-propanol was hand striped. The membrane was dried in a laboratory oven for 1 hour at a temperature of 37.5° C. After the membrane card was taken from the oven, a cellulosic wicking pad (Cat# CFSP203000 from Millipore Corp.) was attached to one end of the membrane closer to the control zone. The other end of the card, used to attach the sample pad, was cut off. The card was then sliced into 4 mm strips to form half sticks.
# Once the half sticks were prepared, a bacteria solution was applied to the end of the detection membrane. […] The control line color remained the same through out the test.
# Polio virus type 1 = conditions: virus diluted serially in media, 50-microliter aliquots, 3 minutes
# E. coli [4] = test: De-colorization of Reichardt's dye-coated paper by bacteria solutions; set-up: species or system Escherichia coli; conditions: paper brush-coated with 80 mg/10 mL acetonitrile; 100 μL of 10^7 to 10^4 CFU/mL
# Protocol: This experiment tested the ability of a surface coating of Reichardt's dye to respond to bacterial contamination. […] To this paper was added 100 μL aliquots of 10^7, 10^6, 10^5, and 10^4 CFU/mL E. coli or S. aureus solutions (8B). Water was used as a negative control. […] It was later determined that while both bacteria solutions were indeed at 10^7 CFU/mL concentrations, the actual concentration of the S. aureus solution was 7×10^7 CFU/mL compared to 1×10^7 CFU/mL for the E. coli solution.
# S. aureus = test: Titration of substrate-bound microorganism with Reichardt's dye solution; set-up: species or system Staphylococcus aureus
# Protocol: On a SCOTT® paper towel was placed 100 μl each of serially diluted S. aureus bacterial suspensions. […] This was repeated on each spot corresponding to where different concentrations of bacteria were placed.
# E. coli [5] = test: Dry sample testing on dye-coated towel; set-up: species or system Escherichia coli; conditions: dry colony rubbed onto pre-moistened dye coated SCOTT towel
# Protocol: A test using the Reichardt's dye coated paper towel with a “dry” bacteria sample, not in solution was carried out. A dry sample of a colony of E. coli bacteria lifted off an agar petri dish containing a series of growing cultures was used. This dry sample was then rubbed onto a pre-moistened dye coated SCOTT® paper towel. The area where the colony was placed and rubbed turned colorless within 1-5 seconds. This is a similar to how a wet wipe towel would be used and it performed well.
# [6] = test system: vaginal fluid samples (lactobacillus, BV bacteria); test: Reichardt's dye-coated stickers with normal and BV-infected vaginal fluid
# Protocol: Considering the high prevalence of vaginal infections of bacterial origin, an experiment was performed to determine the response of Reichardt's dye-coated stickers to healthy (low pH, no bacterial infection), a pH positive/Bacterial Vaginosis (BV) negative (no bacterial infection, but higher than normal pH), and pH positive/BV positive (higher than normal pH and known bacterial infection) vaginal fluid samples. […] A sticker of each concentration was tested with normal, BV positive/pH positive, and BV negative/pH positive vaginal fluid samples.
structure (smiles),measurement,setting,value
"[O-]c1c(-c2ccccc2)cc(-[n+]2c(-c3ccccc3)cc(-c3ccccc3)cc2-c2ccccc2)cc1-c1ccccc1 [Reichardt's dye, 2,6-diphenyl-4-(2,4,6-triphenylpyridinio)-phenolate]",lowest bacteria concentration at which decolorization occurred,E. coli [1]; 1 weight percent dye in isopropanol,500 CFU/ml
same,time to turn colorless,"E. coli [1]; 1 weight percent dye in isopropanol, 100 microliters of 10,000 CFU/ml",less than 5 seconds
same,time to decolorize,E. coli [1]; 500 CFU/ml,≤ 15 s
same,"de-colorization by the other cell-wall compounds (LPS, detoxified LPS, lipoteichoic acid)",[2],eventual de-colorization
same,de-colorization by muramic acid,[2]; both experimental set-ups,near instantaneous de-colorization
same,perceived color of solution,[3]; Acetone,(bluish-green)
same,perceived color of solution,[3]; Acetonitrile,(Blue)
same,perceived color of solution,[3]; Methanol,(red)
same,de-colorization of sticker by undiluted virus,vaccinia,less than that observed for the other viruses
same,de-colorization of dye solution added to bacteria spot,gram-positive bacteria; 160 mg in 10 ml acetonitrile dropped on 100 μl of 10^8 CFU/ml on SCOTT towel,immediately de-colorized
same,drop at which the purple color persisted,"gram-positive bacteria; 160 mg in 10 ml acetonitrile, 100 μl of 10^8 CFU/ml",fourth drop
same,time to de-colorize when bacteria are placed onto dye dried on towel,"gram-positive bacteria; dye spot dried on cellulosic towel, same amount of bacteria",several minutes
same,color change in detection zone of lateral flow half stick,bacteria solution,a color change was noted in the detection zone
same,lowest ten-fold dilution at which stickers changed color,Polio virus type 1,10^−6
same,de-colorization time,E. coli [4],< 1 min
same,Amount of Dye Required for Persistent Color,"S. aureus; 160 mg in 10 ml acetonitrile, 10 μl aliquots, 100 μl of 10^7 CFU/ml on towel",90 µL
same,de-colorization time of dye drops,S. aureus; 10 μl drops of 40 mg/10 ml acetonitrile on 100 μl serially diluted suspensions on SCOTT towel,< 1 s
same,time to turn colorless,E. coli [5],1 to 5 s
same,de-colorization by BV negative/pH positive vaginal fluid,[6],only faintly de-colorized
same,de-colorization by BV positive/pH positive vaginal fluid,[6],next sharpest de-colorization
same,de-colorization by normal vaginal fluid,[6],sharpest de-colorization
